In publication PMC9105976, “A Novel β-Hairpin Peptide Z-d14CFR Enhances Multidrug-Resistant Bacterial Clearance in a Murine Model of Mastitis” (International Journal of Molecular Sciences, 2022):
Positions of bridges follow the written chain, without caps; N, C: chain ends. Residues, ends and D or L forms follow the SMILES beside them.

Tests used:
MRSA ATCC33591 = experiment: MIC/MBC, microdilution broth method; assay type: cell-based, S. aureus; details: for MIC: MRSA (methicillin-resistant S. aureus) ATCC33591, 1 × 10^6 CFU/mL, 18 h at 37 °C, NA = no antimicrobial activity at 1 mg/mL; for MBC: MRSA ATCC33591, kills 99.9% bacteria, NA = no activity at 1 mg/mL
Protocol: (§1) The MIC of peptides against bacteria was carried out by the microdilution broth method. The bacterial culture (OD 600 = 0.6) was diluted in 10 mM PBS to 1 × 10^6 CFU/mL. The bacterial suspension (100 μL) was added to 96-well plates, and the same volume of peptides, ampicillin or gentamicin (concentrations ranging from 0.001 to 2 mg/mL) were then added to the same 96-well plates, respectively.

[1] = test system: Klebsiella pneumoniae CAU202084; experiment: MIC/MBC, microdilution broth method; assay type: cell-based; details: Klebsiella pneumoniae CAU202084 (MDR isolate); for MIC: 1 × 10^6 CFU/mL, 18 h at 37 °C, NA = no antimicrobial activity at 1 mg/mL; for MBC: kills 99.9% bacteria, NA = no activity at 1 mg/mL
Protocol: as §1

[2] = test system: Proteus vulgaris CVCC1971; experiment: MIC/MBC, microdilution broth method; assay type: cell-based; details: Proteus vulgaris CVCC1971; for MIC: 1 × 10^6 CFU/mL, 18 h at 37 °C, NA = no antimicrobial activity at 1 mg/mL; for MBC: kills 99.9% bacteria, NA = no activity at 1 mg/mL
Protocol: as §1

[3] = test system: Staphylococcus haemolyticus CAU202078; experiment: MIC/MBC, microdilution broth method; assay type: cell-based; details: Staphylococcus haemolyticus CAU202078 (MDR isolate); for MIC: 1 × 10^6 CFU/mL, 18 h at 37 °C, NA = no antimicrobial activity at 1 mg/mL; for MBC: kills 99.9% bacteria, NA = no activity at 1 mg/mL
Protocol: as §1

[4] = test system: Streptococcus suis CVCC3307; experiment: MIC/MBC, microdilution broth method; assay type: cell-based; details: Streptococcus suis CVCC3307; for MIC: 1 × 10^6 CFU/mL, 18 h at 37 °C, NA = no antimicrobial activity at 1 mg/mL; for MBC: kills 99.9% bacteria, NA = no activity at 1 mg/mL
Protocol: as §1

[5] = test system: Salmonella typhimurium ATCC14028; experiment: MIC/MBC, microdilution broth method; assay type: cell-based; details: Salmonella typhimurium ATCC14028; for MIC: 1 × 10^6 CFU/mL, 18 h at 37 °C, NA = no antimicrobial activity at 1 mg/mL; for MBC: kills 99.9% bacteria, NA = no activity at 1 mg/mL
Protocol: as §1

[6] = Retention time of peptide in HPLC (hydrophobicity); assay type: physicochemical; details: used as measure of hydrophobicity (order Z-d14CR > Z-d14CF > Z-d13 > Z-d14CFR > Z-d14C); column and gradient not given
[7] = test system: Escherichia coli CVCC1450; experiment: MIC/MBC, microdilution broth method; assay type: cell-based; details: Escherichia coli CVCC1450
Protocol: as §1

[8] = test system: Staphylococcus aureus ATCC29213; experiment: MIC/MBC, microdilution broth method; assay type: cell-based; details: Staphylococcus aureus ATCC29213
Protocol: as §1

[9] = test system: Escherichia coli CAU 201919; experiment: MIC/MBC, microdilution broth method; assay type: cell-based; details: Escherichia coli CAU 201919 (MDR isolate)
Protocol: as §1

[10] = 1 × 10^6 CFU/mL, 18 h at 37 °C, NA = no antimicrobial activity at 1 mg/mL
[11] = kills 99.9% bacteria, NA = no activity at 1 mg/mL

SMILES	MIC (MRSA ATCC33591)	MBC (MRSA ATCC33591)	MIC [1]	MBC [1]	MIC [2]	MBC [2]	MIC [3]	MBC [3]	MIC [4]	MBC [4]	MIC [5]	MBC [5]	RT, retention time of peptide in HPLC [6] [min]	MIC [7, 10]	MBC ([7]; minimum concentration which kills 99.9% bacteria, NA = no activity at 1 mg/mL)	MIC [8, 10]	MBC [8, 11]	MIC [9, 10]	MBC [9, 11]
CC(C)[C@@H]1NC(=O)[C@@H]2CSSC[C@H](NC(=O)[C@H](CCCNC(=N)N)NC(=O)[C@@H](NC(=O)CNC(=O)[C@@H](N)CCCNC(=N)N)CSSC[C@@H](C(=O)N[C@@H](CCCNC(=N)N)C(N)=O)NC1=O)C(=O)N[C@@H](CC(N)=O)C(=O)N[C@@H](CO)C(=O)N[C@@H](CCCCN)C(=O)N[C@@H](CO)C(=O)N[C@@H](C(C)C)C(=O)N2 [Z-d14CR] (H-RGCRCNSKSVCVCR-NH2; disulfide 3-13, 5-11; N-terminus assumed)	NA (NA) (No antimicrobial activity at 1 mg/mL)	NA (NA) (No antimicrobial activity at 1 mg/mL)	NA (NA) (No antimicrobial activity at 1 mg/mL)	NA (NA) (No antimicrobial activity at 1 mg/mL)	NA (NA) (No antimicrobial activity at 1 mg/mL)	NA (NA) (No antimicrobial activity at 1 mg/mL)	NA (NA) (No antimicrobial activity at 1 mg/mL)	NA (NA) (No antimicrobial activity at 1 mg/mL)	NA (NA) (No antimicrobial activity at 1 mg/mL)	NA (NA) (No antimicrobial activity at 1 mg/mL)	NA (NA) (No antimicrobial activity at 1 mg/mL)	NA (NA) (No antimicrobial activity at 1 mg/mL)	10.159	–	–	–	–	–	–
CC(C)[C@@H]1NC(=O)[C@@H]2CSSC[C@H](NC(=O)[C@H](Cc3ccc(O)cc3)NC(=O)[C@@H](NC(=O)CNC(=O)[C@@H](N)CCCNC(=N)N)CSSC[C@@H](C(=O)N[C@@H](CCCNC(=N)N)C(N)=O)NC1=O)C(=O)N[C@@H](CC(N)=O)C(=O)N[C@@H](CO)C(=O)N[C@@H](CCCCN)C(=O)N[C@@H](CO)C(=O)N[C@@H](C(C)C)C(=O)N2 [Z-d14C] (H-RGCYCNSKSVCVCR-NH2; disulfide 3-13, 5-11; N-terminus assumed)	NA (NA) (No antimicrobial activity at 1 mg/mL)	NA (NA) (No antimicrobial activity at 1 mg/mL)	NA (NA) (No antimicrobial activity at 1 mg/mL)	NA (NA) (No antimicrobial activity at 1 mg/mL)	NA (NA) (No antimicrobial activity at 1 mg/mL)	NA (NA) (No antimicrobial activity at 1 mg/mL)	NA (NA) (No antimicrobial activity at 1 mg/mL)	NA (NA) (No antimicrobial activity at 1 mg/mL)	NA (NA) (No antimicrobial activity at 1 mg/mL)	NA (NA) (No antimicrobial activity at 1 mg/mL)	NA (NA) (No antimicrobial activity at 1 mg/mL)	NA (NA) (No antimicrobial activity at 1 mg/mL)	7.809	NA (NA) (No antimicrobial activity at 1 mg/mL)	NA (NA) (No antimicrobial activity at 1 mg/mL)	NA (NA) (No antimicrobial activity at 1 mg/mL)	NA (NA) (No antimicrobial activity at 1 mg/mL)	NA (NA) (No antimicrobial activity at 1 mg/mL)	NA (NA) (No antimicrobial activity at 1 mg/mL)
